These molecules were tested against T1, CXCR4 (Homo sapiens, UniProt P61073) (assay: FLIPR Tetra calcium mobilization assay). Conditions: Human CD4+ T-Cells; CXCL12 added; FLIPR Calcium 4 assay kit.
Type: cell-based
Description: FLIPR Tetra Calcium Mobilization Assay The FLIPR Tetra calcium mobilization assay was performed by HD Bioscience. Briefly, The Molecular Devices, Fluorescent Imaging Plate Reader (FLIPR) Tetra was used in this assay. Excitation was achieved through unique placement of LED's within the instrument and emission captured by a CCD camera (EMCCD camera for FI and ICCD camera for luminescence). The homogeneous FLIPR Calcium 4 assay kit from Molecular Devices was used as the fluorescence reagent. Compounds were solubilized in 100% dimethyl sulfoxide (DMSO) to a concentration of 30 mM. A 10-point, 4-fold, intermediate dilution series was created in 100% DMSO with a top concentration of 4 mM and a bottom concentration of 0.01 μM. A near assay ready, direct dilution plate ([…]) was prepared from this compound dilution plate by transferring 1 μL of each dilution of compound in 100% DMSO to a Greiner #781201 plate. In addition, each […] plate also contained positive and negative control wells to define the upper and lower limits for the assay signal. The final assay concentration range of compound was 10 μM to 0.035 nM in 0.5% DMSO. Human CD^4+ T-Cells were isolated from human whole blood and subsequently activated and expanded using a CD3/CD28 expansion kit (Life Technologies). The cells were frozen in ThermoFisher-formulated Recovery Cell Culture Freezing Medium containing 10% Dimethyl sulfoxide (DMSO) and 10% Fetal Bovine Serum (FBS) (ThermoFisher Catalog No. 10100147). When used, cells were resuspended using room temperature 1× HBSS/20 mM HEPES/0.005% P-104 assay buffer, adjusted the volume of the suspension to achieve a cell concentration of 2.5×10^6 cells/mL. 2× Calcium 4 dye (20 μL/well) were added and the mixture were centrifuged briefly ( 10 s) and stopped when it reached 1000 rpm. The plates were allowed to equilibrate before compounds and CXCL12 were added to the plates. The raw data were analyzed using Abase. The percent (%) effect at each concentration of compound was calculated by Abase and was based on and relative to the amount of calcium produced in the positive and negative control wells contained within each assay plate. The concentrations and % effect values for tested compounds were plotted by Abase and the concentration of compound required for 50% effect (IC50) was determined with a four-parameter logistic dose response equation. FIGS. 3 and 4 summarize the results of Compounds A78 and A83 in the calcium mobilization assay.

T1 sequence (P61073 whole entry): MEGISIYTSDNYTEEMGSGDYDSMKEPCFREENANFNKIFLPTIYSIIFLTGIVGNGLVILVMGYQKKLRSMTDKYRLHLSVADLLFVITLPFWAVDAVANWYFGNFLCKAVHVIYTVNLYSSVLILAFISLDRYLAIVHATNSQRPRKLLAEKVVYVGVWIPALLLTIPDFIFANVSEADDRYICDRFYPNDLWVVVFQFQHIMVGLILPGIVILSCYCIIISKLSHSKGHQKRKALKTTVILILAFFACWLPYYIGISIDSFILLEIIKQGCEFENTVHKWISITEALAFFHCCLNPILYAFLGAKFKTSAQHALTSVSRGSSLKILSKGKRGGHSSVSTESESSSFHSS

| SMILES | IC50 |
| --- | --- |
| Cc1nc(CN(C)[C@@H](C)c2ccccn2)cc(N2CCN3CCC[C@@H]3C2)n1 [Compound A78] | 0.062 nM |
| Cc1nc(CN(C)[C@@H](C)c2ccccn2)cc(N2CCN3CCC[C@H]3C2)n1 [Compound A79] | 0.22 nM |
| CCN(Cc1cc(N2CCN(C)CC2)nc(C)n1)[C@@H](C)c1ccccn1 [Compound A80] | 0.18 nM |
| C[C@@H](c1ccccn1)N(C)Cc1cc(N2CCN(C)CC2)nc(CO)n1 [Compound A81] | 4.5 nM |
| C[C@@H](c1ccccn1)N(C)Cc1cc(N2CCN3CCC[C@@H]3C2)nc(CO)n1 [Compound A82] | 2.5 nM |
| C[C@@H](c1ccccn1)N(C)Cc1cc(N2CCN(C)CC2)nc(N)n1 [Compound A83] | 0.93 nM |
| Cc1nc(CN(C)[C@@H](C)c2ccccn2)cc(N2CCN(C)CC2CO)n1 (stereo partly shown) [Compound A84] | 3 nM |
| Cc1nc(CN(C)[C@@H](C)c2ccccn2)c(CO)c(N2CCN(C)CC2)n1 [Compound A85, (S)-(2-methyl-4-((methyl(1-(pyridin-2-yl)ethyl)amino)methyl)-6-(4-methylpiperazin-1-yl)pyrimidin-5-yl)methanol] | 0.99 nM |
| Cc1nc(CN(C)[C@@H](C)c2ccccn2)c(CO)c(N2CCN3CCC[C@@H]3C2)n1 [Compound A86] | 0.13 nM |
| Cc1nc(CN(C)[C@@H](C)c2ccccn2)c(CO)c(N2CCN3CCC[C@H]3C2)n1 [Compound A87] | 0.18 nM |
| Cc1nc(CN(C)[C@@H](C)c2ccccn2)c(CO)c(N2CCN(C)[C@@H](C)C2)n1 [Compound A88] | 0.3 nM |
| Cc1nc(CN(C)[C@@H](C)c2ccccn2)c(CO)c(N2CCN(C)[C@H](C)C2)n1 [Compound A89] | 0.13 nM |
| Cc1nc(CN(C)C2CCOc3cccnc32)cc(N2CCN(C)CC2)n1 (stereo not shown) [Compound A90] | 0.046 nM |
| Cc1nc(CN(C)[C@H]2CCOc3cccnc32)cc(N2CCN(C)CC2)n1 [Compound A91] | 0.032 nM |
| COc1cccnc1[C@H](C)N(C)Cc1cc(N2CCN(C)CC2)nc(C)n1 [Compound A92] | 118 nM |
| C[C@@H](c1ccccn1)N(C)Cc1cn2c(N3CCN(C)CC3)cccc2n1 [Compound A95, (S)-N-methyl-N-((5-(4-methylpiperazin-1-yl)imidazo[1,2-a]pyridin-2-yl)methyl)-1-(pyridin-2-yl)ethan-1-amine] | 0.13 nM |
| C[C@@H](c1ccccn1)N(C)Cc1nc2cccc(N3CCN(C)CC3)n2c1CO [Compound A96, (S)-(2-((methyl(1-(pyridin-2-yl)ethyl)amino)methyl)-5-(4-methylpiperazin-1-yl)imidazo[1,2-a]pyridin-3-yl)methanol] | 0.086 nM |
| C[C@@H](c1ccccn1)N(C)Cc1cn2c(N3CCN4CCC[C@H]4C3)cccc2n1 [Compound A97] | 0.25 nM |
| C[C@@H](c1ccccn1)N(C)Cc1cn2c(N3CCN4CCC[C@@H]4C3)cccc2n1 [Compound A98] | 0.15 nM |
| C[C@@H](c1ccccn1)N(C)Cc1nc2cccc(N3CCN4CCC[C@H]4C3)n2c1CO [Compound A99] | 0.39 nM |
| C[C@@H](c1ccccn1)N(C)Cc1nc2cccc(N3CCN4CCC[C@@H]4C3)n2c1CO [Compound A100] | 0.29 nM |

Other lines, results leading:

| IC50 | SMILES |
| --- | --- |
| 1.1 nM | Cc1nc(CN2CCC[C@H]2c2ncccc2C)c(F)c(N2CCN(C)CC2)n1 [Compound C33] |
| 1.8 nM | Cc1nc(CN2CCC[C@H]2c2ncccc2C)c(C#N)c(N2CCN(C)CC2)n1 [Compound C34] |
| 2.7 nM | Cc1nc(CN2CCC[C@H]2c2ncccc2C)cc(NCCN2CCOCC2)n1 [Compound C35] |
| 0.5 nM | Cc1nc(CN2CCC[C@H]2c2ncccc2C)cc(N2CCCN(C)CC2)n1 [Compound C36] |
| 12 nM | Cc1nc(CN2CCC[C@H]2c2ncccc2C)cc(N2CCC(N(C)C)CC2)n1 [Compound C37] |

Each molecule was assayed against T1, CXCR4 (assay: HPB-ALL CXCR4 competitive binding assay (12G5 binding assay)). Conditions: HPB-ALL cells; competition with APC-conjugated anti-human CXCR4 clone 12G5 at its EC80; 4° C. for 3 h; FACS.
Design: HPB-ALL cells were maintained in RPMI-1640 (Gibico) supplemented with 10% FBS (Hyclone); endogenous in cells; host or cells: HPB-ALL cells
Description: HPB-ALL CXCR4 Competitive Binding Assay
HPB-ALL cells were maintained in RPMI-1640 (Gibico) supplemented with 10% FBS (Hyclone). APC-conjugated anti-human CXCR4 was from Sungene. EC80 was first determined for 12G5 binding to CXCR4. Then the compounds for testing were added into 96-well plates serially diluted at a ratio of 1:3. Cells were washed once with ice-cold assay buffer (DPBS+2% HI-FBS) and then re-suspended in the same buffer at a final concentration of 1×10^6/mL. Cell suspension was then added into the wells and with the addition of APC-conjugated anti-human CXCR4 clone 12G5 at its EC80 determined. The mix of cell, compounds and APC-conjugated anti-human CXCR4 were incubated at 4° C. for 3 h before addition of 100 μL of 4% PFA. Cells were then washed once and resuspended in assay buffer and examined by FACS. The percent (%) effect at each concentration of compound was calculated and relative to the amount of calcium produced in the positive and negative control wells contained within each assay plate. The concentrations and % effect values for tested compounds were plotted and the concentration of compound required for 50% effect (IC50) was determined. Tables 2 summarize results of the CXCR4 competitive binding assay for selected compounds disclosed in the present disclosure. FIGS. 1-2 depict the IC50 curves of compounds A42 and A43.

| SMILES | IC50 |
| --- | --- |
| Cc1nc(CN(C)[C@H](C)c2ccccn2)cc(N2CCN(C)CC2)n1 [Compound A76] | 220 nM |
| Cc1nc(CN(C)C2CCCc3cccnc32)c(C#N)c(N2CCN(C)CC2)n1 (stereo not shown) [Compound A77] | 9 nM |

The remaining lines, values ahead:

| IC50 | SMILES |
| --- | --- |
| > 10000 nM | CN1CCN(c2cc(N(C)CC3CCCc4cccnc43)ncn2)CC1 (stereo not shown) [Compound B1] |
| > 10000 nM | CN(C)c1ncc(CN(C)C2CCCc3cccnc32)c(NCCNC(=O)OC(C)(C)C)n1 (stereo not shown) [Compound B7, reference compound] |
| > 10000 nM | CN(C)c1ncc(CN(C)C2CCCc3cccnc32)c(NCCN)n1 (stereo not shown) [Compound B8, reference compound] |
| 93 nM | CSc1nc([C@H]2CCCN2[C@H]2CCCc3cccnc32)cc(N2CCN(C)CC2)n1 [Compound C1] |
| 2320 nM | CSc1nc([C@@H]2CCCN2[C@@H]2CCCc3cccnc32)cc(N2CCN(C)CC2)n1 [Compound C4] |
| 20 nM | Cc1nc([C@H]2CCCN2[C@H]2CCCc3cccnc32)cc(N2CCN(C)CC2)n1 [Compound C5] |
| 3240 nM | Cc1nc([C@H]2CCCCN2[C@H]2CCCc3cccnc32)cc(N2CCN(C)CC2)n1 [Compound C6] |
| 6960 nM | Cc1nc([C@@H]2CCCCN2[C@@H]2CCCc3cccnc32)cc(N2CCN(C)CC2)n1 [Compound C8] |
| 248 nM | CSc1nc(CN2CCCCC2c2ccccn2)cc(N2CCN(C)CC2)n1 (stereo not shown) [Compound C10] |
| 142 nM | CSc1nc(CN2CCCC2c2ccccn2)cc(N2CCN(C)CC2)n1 (stereo not shown) [Compound C11] |
| 165 nM | Cc1nc(CN2CCCC2c2ccccn2)cc(N2CCN(C)CC2)n1 (stereo not shown) [Compound C12] |
| 62 nM | Cc1nc([C@H]2CCN2[C@H]2CCCc3cccnc32)cc(N2CCN(C)CC2)n1 [Compound C13] |
| 8110 nM | Cc1nc([C@H]2CCN2[C@@H]2CCCc3cccnc32)cc(N2CCN(C)CC2)n1 [Compound C14] |
| 500 nM | Cc1nc([C@H]2C[C@@H](O[Si](C)(C)C(C)(C)C)CN2[C@H]2CCCc3cccnc32)cc(N2CCN(C)CC2)n1 [Compound C15] |
| 7.74 nM | Cc1nc([C@H]2C[C@@H](O)CN2[C@H]2CCCc3cccnc32)cc(N2CCN(C)CC2)n1 [Compound C16, (3R,5R)-5-(2-methyl-6-(4-methylpiperazin-1-yl)pyrimidin-4-yl)-1-((S)-5,6,7,8-tetrahydroquinolin-8-yl)pyrrolidin-3-ol] |
| 429 nM | CSc1nc(CN2CCCCC2c2ccccn2)cc(N2CCN(C)CC2)n1 (stereo not shown) [Compound C18] |
| 1710 nM | Cc1nc([C@H]2CC(F)(F)CN2[C@H]2CCCc3cccnc32)cc(N2CCN(C)CC2)n1 [Compound C19] |
| 82 nM | CO[C@@H]1C[C@H](c2cc(N3CCN(C)CC3)nc(C)n2)N([C@H]2CCCc3cccnc32)C1 [Compound C21] |
| 144 nM | Cc1nc(CN2CCC[C@H]2c2ccccn2)cc(N2CCN(C)CC2)n1 [Compound C23] |
| 68 nM | Cc1nc(CN2CCC[C@H]2c2ncccc2C)cc(N2CCN(C)CC2)n1 [Compound C25] |
| 206 nM | Cc1ccnc([C@@H]2CCCN2Cc2cc(N3CCN(C)CC3)nc(C)n2)c1 [Compound C26] |
| 279 nM | Cc1ccc([C@@H]2CCCN2Cc2cc(N3CCN(C)CC3)nc(C)n2)nc1 [Compound C27] |
| 2280 nM | Cc1cccc([C@@H]2CCCN2Cc2cc(N3CCN(C)CC3)nc(C)n2)n1 [Compound C28] |
| 1200 nM | Cc1nc(CN2CCC(C)C2c2ccccn2)cc(N2CCN(C)CC2)n1 (stereo not shown) [Compound C29] |
